The values that follow come from ChEMBL document CHEMBL4507293 (2021).

For assay [1], the target named is 5-hydroxytryptamine receptor 7 (Homo sapiens, UniProt P34969). Briefly: GPCRScan assay: inhibition of 5-HT7A. The arrangement: radioligand conc. used [nm] 5.0 – 6.0, parental cells Stable HEK.
Assay [2] addresses Phosphatidylinositol 5-phosphate 4-kinase type-2 gamma (Homo sapiens) (UniProt Q8TBX8). The following applies: Compound concentration 100.0 nM.
For assay [3], the target named is Alpha-2A adrenergic receptor (Homo sapiens) (UniProt P08913). The following applies: Compound concentration 10.0 uM.
Sequence of Alpha-2A adrenergic receptor (Homo sapiens) (P08913 whole entry): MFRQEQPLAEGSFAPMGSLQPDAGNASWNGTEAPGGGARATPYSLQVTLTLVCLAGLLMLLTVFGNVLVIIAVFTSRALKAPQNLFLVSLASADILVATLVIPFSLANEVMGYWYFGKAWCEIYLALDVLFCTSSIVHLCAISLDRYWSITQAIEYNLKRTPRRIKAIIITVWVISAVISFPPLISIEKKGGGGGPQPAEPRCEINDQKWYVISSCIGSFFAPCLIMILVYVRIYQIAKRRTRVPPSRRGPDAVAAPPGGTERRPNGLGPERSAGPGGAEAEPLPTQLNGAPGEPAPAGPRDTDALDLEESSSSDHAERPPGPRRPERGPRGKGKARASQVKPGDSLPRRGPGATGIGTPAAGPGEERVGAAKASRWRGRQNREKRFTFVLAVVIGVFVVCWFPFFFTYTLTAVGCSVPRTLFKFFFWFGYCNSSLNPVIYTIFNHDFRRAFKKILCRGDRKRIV
Assay [4] addresses Peroxisome proliferator-activated receptor alpha (Homo sapiens) (UniProt Q07869). Briefly: PPARalpha Eurofins-Panlabs radioligand binding assay. The conditions noted are these: Compound concentration 10.0 uM.
Assay [5] in a line: Inhibition of Atrial Natriuretic Factor (ANF) at 10 µM in the Eurofins-Panlabs radioligand binding assay (Eurofins_assay_211000). The conditions noted are these: Cavia porcellus; Compound concentration 10 uM; Assay protocol publication PMID: 2408776; Detection method Radioligand Binding; Incubation temperature 4 °C; Incubation time 60 min; Ligand Bmax 0.013 pM/ mg protein; Ligand Kd 0.14 nM; Ligand [125I] ANF (rat); Ligand concentration 0.016 nM; Ligand specific binding 78 %; Non-specific ligand with concentration 0.1 µM ANF (rat); Reference compound ANF (rat); Source of ….

Assay [6] deals with Beta-3 adrenergic receptor (Homo sapiens) (UniProt P13945). The conditions noted are these: Compound concentration 10.0 uM.
Sequence of Beta-3 adrenergic receptor (Homo sapiens) (P13945 whole entry, looked up): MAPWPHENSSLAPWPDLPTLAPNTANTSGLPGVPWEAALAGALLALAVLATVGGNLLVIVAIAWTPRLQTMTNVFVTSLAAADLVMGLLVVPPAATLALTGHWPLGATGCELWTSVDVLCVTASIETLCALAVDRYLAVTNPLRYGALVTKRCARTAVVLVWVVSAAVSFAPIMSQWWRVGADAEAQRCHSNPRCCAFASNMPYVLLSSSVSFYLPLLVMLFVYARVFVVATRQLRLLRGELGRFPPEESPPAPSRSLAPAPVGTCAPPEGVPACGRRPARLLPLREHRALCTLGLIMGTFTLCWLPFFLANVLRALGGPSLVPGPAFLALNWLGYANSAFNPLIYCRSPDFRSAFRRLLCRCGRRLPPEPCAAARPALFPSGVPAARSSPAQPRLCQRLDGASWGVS
Assay [7] addresses Melanin-concentrating hormone receptor 1 (Homo sapiens) (UniProt Q99705). Briefly: Melanin-Concentrating Hormone MCH1 (SLC1) Eurofins-Panlabs radioligand binding assay. The arrangement: ligand concentration 0.05 nM. The conditions noted are these: Compound concentration 10.0 uM.
Assay [8] deals with T1, Alpha-2C adrenergic receptor (Homo sapiens) (UniProt P18825).
T1 sequence (whole entry): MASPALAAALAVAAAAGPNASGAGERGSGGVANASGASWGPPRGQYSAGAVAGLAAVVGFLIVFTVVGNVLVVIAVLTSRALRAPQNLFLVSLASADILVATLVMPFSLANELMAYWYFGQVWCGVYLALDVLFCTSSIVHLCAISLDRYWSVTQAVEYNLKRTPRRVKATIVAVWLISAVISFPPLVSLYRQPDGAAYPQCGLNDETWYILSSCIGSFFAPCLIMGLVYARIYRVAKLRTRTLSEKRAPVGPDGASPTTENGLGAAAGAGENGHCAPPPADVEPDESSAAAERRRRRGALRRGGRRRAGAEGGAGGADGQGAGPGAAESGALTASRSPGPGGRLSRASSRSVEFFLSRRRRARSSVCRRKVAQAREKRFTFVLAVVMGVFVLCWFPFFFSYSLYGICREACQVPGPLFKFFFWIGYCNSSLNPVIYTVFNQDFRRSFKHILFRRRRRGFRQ
Briefly: Adrenergic alpha2C Eurofins-Panlabs radioligand binding assay. The arrangement: ligand concentration 1 nM, non-specific ligand with concentration 10 µM WB-4101, incubation time 60 min, incubation temperature 25 °C. The conditions noted are these: Compound concentration 10.0 uM.

The species named for assay [9] is Rattus norvegicus. The conditions noted are these: Compound concentration 10.0 uM.
The species named for assay [10] is Rattus norvegicus. Briefly: Inhibition of Glutamate, NMDA, Phencyclidine at 10 µM in the Eurofins-Panlabs radioligand binding assay (Eurofins_assay_233000). In kind it is protein-complex assay. The conditions noted are these: Compound concentration 10.0 uM.
Assay [11] deals with Alpha-1D adrenergic receptor (Homo sapiens) (UniProt P25100). Put plainly: Inhibition of Adrenergic alpha1D at 10 µM in the Eurofins-Panlabs radioligand binding assay (Eurofins_assay_203400). The following applies: Compound concentration 10.0 uM.
Sequence of Alpha-1D adrenergic receptor (Homo sapiens) (P25100 whole entry): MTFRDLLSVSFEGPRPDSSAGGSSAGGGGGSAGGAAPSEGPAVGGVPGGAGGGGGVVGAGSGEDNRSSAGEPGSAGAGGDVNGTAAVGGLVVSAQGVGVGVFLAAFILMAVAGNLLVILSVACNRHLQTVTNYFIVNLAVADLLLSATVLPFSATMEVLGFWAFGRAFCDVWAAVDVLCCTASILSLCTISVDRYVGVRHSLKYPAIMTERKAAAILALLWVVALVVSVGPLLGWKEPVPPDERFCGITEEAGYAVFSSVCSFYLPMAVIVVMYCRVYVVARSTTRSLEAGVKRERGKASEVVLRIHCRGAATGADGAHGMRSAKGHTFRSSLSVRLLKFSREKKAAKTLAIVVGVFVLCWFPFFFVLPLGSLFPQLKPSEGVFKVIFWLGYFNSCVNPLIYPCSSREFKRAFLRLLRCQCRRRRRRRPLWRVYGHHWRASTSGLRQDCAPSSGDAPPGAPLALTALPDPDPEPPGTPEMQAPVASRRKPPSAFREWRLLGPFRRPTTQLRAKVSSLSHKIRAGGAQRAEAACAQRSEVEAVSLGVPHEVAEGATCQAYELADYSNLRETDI
The target in another assay is Caspase-8 (Homo sapiens) (UniProt Q14790). Put plainly: Peptidase, CASP8 (Caspase 8) Eurofins-Panlabs enzyme assay. The following applies: Compound concentration 10.0 uM.
Sequence of Caspase-8 (Homo sapiens) (Q14790 217-374 limits assumed): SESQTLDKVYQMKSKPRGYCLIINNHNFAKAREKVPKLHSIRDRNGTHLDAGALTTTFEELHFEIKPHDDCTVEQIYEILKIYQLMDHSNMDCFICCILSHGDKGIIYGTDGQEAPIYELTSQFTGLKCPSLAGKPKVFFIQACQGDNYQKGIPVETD
Sequence of Caspase-8 (Homo sapiens) (Q14790 385-479 limits assumed): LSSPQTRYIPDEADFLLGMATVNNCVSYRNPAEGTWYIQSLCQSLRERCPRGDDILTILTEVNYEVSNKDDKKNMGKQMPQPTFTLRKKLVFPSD
In assay [12] the target is C-X-C chemokine receptor type 2 (Homo sapiens) (UniProt P25025). Briefly: Inhibition of Chemokine CXCR2 (IL-8RB) at 10 µM in the Eurofins-Panlabs radioligand binding assay (Eurofins_assay_244500). The conditions noted are these: Compound concentration 10.0 uM.
Sequence of C-X-C chemokine receptor type 2 (Homo sapiens) (P25025 whole entry): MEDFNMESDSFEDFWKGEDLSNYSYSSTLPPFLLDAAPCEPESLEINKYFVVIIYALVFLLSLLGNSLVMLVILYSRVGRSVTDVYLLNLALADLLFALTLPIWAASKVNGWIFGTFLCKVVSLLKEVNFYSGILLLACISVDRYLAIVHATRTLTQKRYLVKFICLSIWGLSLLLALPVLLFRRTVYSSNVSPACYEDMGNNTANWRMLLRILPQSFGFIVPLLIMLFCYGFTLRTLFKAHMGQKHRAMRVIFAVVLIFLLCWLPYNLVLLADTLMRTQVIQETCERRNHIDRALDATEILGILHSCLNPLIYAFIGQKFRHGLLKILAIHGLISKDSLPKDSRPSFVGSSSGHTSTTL
For assay [13], the target named is T2, 5-hydroxytryptamine receptor 1A (Homo sapiens) (UniProt P08908).
T2 sequence (whole entry): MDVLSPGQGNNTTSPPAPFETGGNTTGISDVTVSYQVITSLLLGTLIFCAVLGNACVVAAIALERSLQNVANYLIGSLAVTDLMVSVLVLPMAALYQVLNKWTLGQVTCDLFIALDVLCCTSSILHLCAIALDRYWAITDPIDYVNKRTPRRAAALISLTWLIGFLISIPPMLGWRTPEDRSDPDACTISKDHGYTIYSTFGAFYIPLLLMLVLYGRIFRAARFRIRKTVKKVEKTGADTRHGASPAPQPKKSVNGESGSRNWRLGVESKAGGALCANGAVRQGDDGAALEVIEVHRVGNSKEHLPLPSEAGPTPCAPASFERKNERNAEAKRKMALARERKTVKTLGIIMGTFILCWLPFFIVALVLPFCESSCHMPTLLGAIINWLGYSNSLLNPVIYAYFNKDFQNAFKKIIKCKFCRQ
The conditions noted are these: Compound concentration 10.0 uM.

Assay [14] deals with Histamine H4 receptor (Homo sapiens) (UniProt Q9H3N8). Put plainly: Histamine H4 Eurofins-Panlabs radioligand binding assay. The conditions noted are these: Compound concentration 10.0 uM.
Sequence of Histamine H4 receptor (Homo sapiens) (Q9H3N8 whole entry): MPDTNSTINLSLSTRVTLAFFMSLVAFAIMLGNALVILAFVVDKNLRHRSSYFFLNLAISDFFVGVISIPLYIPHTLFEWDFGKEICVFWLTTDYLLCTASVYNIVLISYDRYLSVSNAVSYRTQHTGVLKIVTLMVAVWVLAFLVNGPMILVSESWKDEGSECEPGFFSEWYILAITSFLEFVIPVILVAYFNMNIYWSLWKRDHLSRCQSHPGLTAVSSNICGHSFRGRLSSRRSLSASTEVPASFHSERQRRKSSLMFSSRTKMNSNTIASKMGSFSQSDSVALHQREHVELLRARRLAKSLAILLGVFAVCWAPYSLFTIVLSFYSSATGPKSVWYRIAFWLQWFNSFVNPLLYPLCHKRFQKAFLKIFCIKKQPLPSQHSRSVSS
The target in assay [15] is T3, Muscarinic acetylcholine receptor M1 (Homo sapiens) (UniProt P11229).
T3 sequence (whole entry): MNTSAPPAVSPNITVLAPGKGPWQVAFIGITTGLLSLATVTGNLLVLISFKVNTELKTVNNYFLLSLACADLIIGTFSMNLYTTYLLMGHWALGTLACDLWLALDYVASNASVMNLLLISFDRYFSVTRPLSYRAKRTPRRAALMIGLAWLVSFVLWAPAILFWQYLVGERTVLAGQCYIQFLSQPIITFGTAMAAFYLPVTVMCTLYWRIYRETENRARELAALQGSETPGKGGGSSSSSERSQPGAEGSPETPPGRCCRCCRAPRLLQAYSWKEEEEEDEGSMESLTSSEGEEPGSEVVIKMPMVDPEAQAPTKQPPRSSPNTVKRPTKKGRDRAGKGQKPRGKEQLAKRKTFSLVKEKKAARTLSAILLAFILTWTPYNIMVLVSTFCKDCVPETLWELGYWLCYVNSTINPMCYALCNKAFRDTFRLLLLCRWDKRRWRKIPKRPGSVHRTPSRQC
The following applies: Compound concentration 10.0 uM.

In assay [16] the target is Histamine H2 receptor (Homo sapiens) (UniProt P25021). The following applies: Compound concentration 10.0 uM.
Sequence of Histamine H2 receptor (Homo sapiens) (P25021 whole entry): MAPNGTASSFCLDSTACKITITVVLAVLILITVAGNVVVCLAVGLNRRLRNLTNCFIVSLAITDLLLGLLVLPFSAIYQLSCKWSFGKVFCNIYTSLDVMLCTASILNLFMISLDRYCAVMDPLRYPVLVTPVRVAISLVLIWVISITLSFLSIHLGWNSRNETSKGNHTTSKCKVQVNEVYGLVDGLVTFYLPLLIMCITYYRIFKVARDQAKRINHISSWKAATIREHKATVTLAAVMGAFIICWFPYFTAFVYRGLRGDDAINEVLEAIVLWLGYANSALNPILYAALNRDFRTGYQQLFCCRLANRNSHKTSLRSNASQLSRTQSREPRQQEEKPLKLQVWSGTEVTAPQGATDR
Assay [17] is filed under the species Rattus norvegicus. Put plainly: Glutamate, NMDA, Polyamine Eurofins-Panlabs radioligand binding assay. In kind it is protein-complex assay. Further details: ligand concentration 2 nM; call rule not given here. The following applies: Compound concentration 10.0 uM.

Sequence of Peroxisome proliferator-activated receptor alpha (Homo sapiens) (Q07869 whole entry): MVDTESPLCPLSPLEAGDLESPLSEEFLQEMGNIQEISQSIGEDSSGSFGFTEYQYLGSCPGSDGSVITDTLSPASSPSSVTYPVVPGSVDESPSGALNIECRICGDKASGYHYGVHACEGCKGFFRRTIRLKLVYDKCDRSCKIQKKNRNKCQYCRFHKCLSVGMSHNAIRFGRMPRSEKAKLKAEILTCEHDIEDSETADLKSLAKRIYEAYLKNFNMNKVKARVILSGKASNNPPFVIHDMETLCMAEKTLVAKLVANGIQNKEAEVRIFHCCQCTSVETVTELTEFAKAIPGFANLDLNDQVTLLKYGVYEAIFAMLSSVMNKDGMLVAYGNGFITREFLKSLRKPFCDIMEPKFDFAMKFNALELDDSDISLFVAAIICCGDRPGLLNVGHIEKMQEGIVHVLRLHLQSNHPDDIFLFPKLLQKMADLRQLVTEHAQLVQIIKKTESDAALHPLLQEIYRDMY
Sequence of Phosphatidylinositol 5-phosphate 4-kinase type-2 gamma (Homo sapiens) (Q8TBX8 whole entry): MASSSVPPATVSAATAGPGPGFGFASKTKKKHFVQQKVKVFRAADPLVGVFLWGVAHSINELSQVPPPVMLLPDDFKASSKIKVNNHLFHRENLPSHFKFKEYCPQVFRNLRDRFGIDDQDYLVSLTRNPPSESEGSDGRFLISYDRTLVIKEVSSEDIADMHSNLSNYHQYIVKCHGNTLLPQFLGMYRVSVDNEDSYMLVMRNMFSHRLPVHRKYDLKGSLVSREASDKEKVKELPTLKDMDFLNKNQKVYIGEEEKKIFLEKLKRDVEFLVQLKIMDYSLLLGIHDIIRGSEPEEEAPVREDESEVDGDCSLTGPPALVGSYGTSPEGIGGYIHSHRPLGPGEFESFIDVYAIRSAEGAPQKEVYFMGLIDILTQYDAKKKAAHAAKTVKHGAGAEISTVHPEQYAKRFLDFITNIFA
Sequence of Melanin-concentrating hormone receptor 1 (Homo sapiens) (Q99705 whole entry): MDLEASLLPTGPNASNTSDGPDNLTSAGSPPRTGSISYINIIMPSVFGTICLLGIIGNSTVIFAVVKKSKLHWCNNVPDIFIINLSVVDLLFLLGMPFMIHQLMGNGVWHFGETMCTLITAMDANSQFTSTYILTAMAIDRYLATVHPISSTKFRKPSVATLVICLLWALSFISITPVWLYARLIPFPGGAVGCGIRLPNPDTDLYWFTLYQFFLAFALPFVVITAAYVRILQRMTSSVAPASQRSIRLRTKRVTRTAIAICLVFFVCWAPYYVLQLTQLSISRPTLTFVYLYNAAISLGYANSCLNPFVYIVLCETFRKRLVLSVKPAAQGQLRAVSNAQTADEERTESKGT
Sequence of 5-hydroxytryptamine receptor 7 (P34969 whole entry): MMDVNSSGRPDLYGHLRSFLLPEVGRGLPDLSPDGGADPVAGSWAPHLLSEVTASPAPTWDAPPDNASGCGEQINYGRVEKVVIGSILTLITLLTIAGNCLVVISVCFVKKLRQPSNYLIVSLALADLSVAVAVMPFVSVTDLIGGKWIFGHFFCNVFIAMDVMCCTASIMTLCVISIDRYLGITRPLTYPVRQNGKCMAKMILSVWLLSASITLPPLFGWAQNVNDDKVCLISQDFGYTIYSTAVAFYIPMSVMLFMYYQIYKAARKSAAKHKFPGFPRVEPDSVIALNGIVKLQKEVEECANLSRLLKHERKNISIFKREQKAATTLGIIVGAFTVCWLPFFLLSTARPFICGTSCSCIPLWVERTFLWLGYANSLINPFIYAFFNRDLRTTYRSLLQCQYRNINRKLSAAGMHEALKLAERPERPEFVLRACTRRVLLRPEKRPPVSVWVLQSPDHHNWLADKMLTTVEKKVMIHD

Regarding `CC(C)CC(=O)N1CCc2nc(-c3ccc(Br)cc3)nc(N(C)Cc3ccccc3)c2C1` [THPP-1-NC], the Ki in assay [1] came to 578 nM. The residual activity in [2] is 96%. Besides, the inhibition in assay [3] is 48.4%.
On to `COCCOc1nc(-c2ccc(Cl)nc2)nc2c1CN(C(=O)c1ncn3ccccc13)CC2` [THPP-1], for which the inhibition in assay [4] was 4%; in assay [6], 1%; in [7] it was 4%; in assay [8] it was 3%; in the assay listed under Rattus norvegicus [9], -9%; in the assay filed under Rattus norvegicus [10], -10%. The inhibition in assay [11] was 45%; at Caspase-8 (Homo sapiens) it was -3%; in assay [12], -4%; in [13], 8%; in assay [14], 1%; in assay [15], 6%. Further, the inhibition in assay [16] was 2%; in the assay filed under Rattus norvegicus [17], 11%. For the same compound, the inhibition at 10 µM in assay [5] was 0% (not active).
